The values below come from paper PMC4896453 (PLoS ONE, 2016).

The term EC50 denotes the concentration giving half of the maximal effect. As usually defined, the Ki is the equilibrium dissociation constant of an inhibitor or competing ligand from its target. Low readings indicate a stronger hold on the target, high ones a looser hold on the target. Usually Emax stands for the greatest response seen or fitted, relative to the assay's reference.

Data set [1] has as its target T1, Mu receptor (CHOhMu) (Homo sapiens, UniProt P35372).
T1 construct: expressed in transfected cells; host or cells: CHO (Chinese Hamster Ovary)
The data set is described as follows: GTPγ[35S] binding, CHOhMu membranes. The data set is classed as biochemical. Background: GTPγS resists hydrolysis and so accumulates on activated G proteins.

In data set [2] the target is T2, NOP receptor (CHOhNOP) (Homo sapiens, UniProt P41146).
T2 construct: expressed in transfected cells; host or cells: CHO (Chinese Hamster Ovary)
T2 sequence (P41146 whole entry): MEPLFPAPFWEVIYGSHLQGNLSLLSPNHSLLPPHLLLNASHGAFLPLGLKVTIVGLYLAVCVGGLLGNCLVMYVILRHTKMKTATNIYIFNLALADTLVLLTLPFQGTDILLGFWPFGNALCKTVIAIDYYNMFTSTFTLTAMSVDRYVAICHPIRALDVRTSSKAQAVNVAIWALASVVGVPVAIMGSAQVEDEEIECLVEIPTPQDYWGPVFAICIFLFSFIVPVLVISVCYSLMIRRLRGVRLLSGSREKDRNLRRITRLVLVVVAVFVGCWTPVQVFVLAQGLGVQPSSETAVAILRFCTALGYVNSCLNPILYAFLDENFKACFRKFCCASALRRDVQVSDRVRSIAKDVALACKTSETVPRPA
Put plainly: GTPγ[35S] binding, CHOhNOP membranes. The data set is classed as biochemical.

In data set [3] the target is T3, Kappa receptor (CHOhKappa) (Homo sapiens, UniProt P41145).
T3 construct: expressed in transfected cells; host or cells: CHO (Chinese Hamster Ovary)
T3 sequence (P41145 whole entry): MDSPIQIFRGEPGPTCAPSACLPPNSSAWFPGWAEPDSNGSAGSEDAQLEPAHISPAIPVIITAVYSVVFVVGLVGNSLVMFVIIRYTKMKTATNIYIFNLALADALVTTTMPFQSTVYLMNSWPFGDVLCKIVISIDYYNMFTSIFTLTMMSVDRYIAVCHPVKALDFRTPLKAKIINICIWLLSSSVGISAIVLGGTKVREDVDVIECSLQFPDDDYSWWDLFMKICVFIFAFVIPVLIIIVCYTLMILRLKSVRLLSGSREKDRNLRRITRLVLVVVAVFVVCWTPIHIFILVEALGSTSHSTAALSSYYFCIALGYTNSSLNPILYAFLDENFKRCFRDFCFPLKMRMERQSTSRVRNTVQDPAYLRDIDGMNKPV
Put plainly: GTPγ[35S] binding, CHOhKappa membranes. Type of data set: biochemical.

Data set [4] addresses T4, human Mu receptor (Mu-RLuc/Gβ1-RGFP) (Homo sapiens, UniProt P35372).
T4 construct: expressed in transfected cells; host or cells: SH-SY5Y (retroviral expression; membranes used)
The data set is described as follows: BRET Mu-RLuc/Gβ1-RGFP interaction, SH-SY5Y membranes. Type of data set: biochemical.

For data set [5], the target named is T5, human Mu receptor (Mu-RLuc/β-arrestin 2-RGFP) (Homo sapiens, UniProt P35372).
T5 construct: expressed in transfected cells; host or cells: SH-SY5Y (retroviral expression; whole cells)
T5 sequence (P35372+P27652 fused): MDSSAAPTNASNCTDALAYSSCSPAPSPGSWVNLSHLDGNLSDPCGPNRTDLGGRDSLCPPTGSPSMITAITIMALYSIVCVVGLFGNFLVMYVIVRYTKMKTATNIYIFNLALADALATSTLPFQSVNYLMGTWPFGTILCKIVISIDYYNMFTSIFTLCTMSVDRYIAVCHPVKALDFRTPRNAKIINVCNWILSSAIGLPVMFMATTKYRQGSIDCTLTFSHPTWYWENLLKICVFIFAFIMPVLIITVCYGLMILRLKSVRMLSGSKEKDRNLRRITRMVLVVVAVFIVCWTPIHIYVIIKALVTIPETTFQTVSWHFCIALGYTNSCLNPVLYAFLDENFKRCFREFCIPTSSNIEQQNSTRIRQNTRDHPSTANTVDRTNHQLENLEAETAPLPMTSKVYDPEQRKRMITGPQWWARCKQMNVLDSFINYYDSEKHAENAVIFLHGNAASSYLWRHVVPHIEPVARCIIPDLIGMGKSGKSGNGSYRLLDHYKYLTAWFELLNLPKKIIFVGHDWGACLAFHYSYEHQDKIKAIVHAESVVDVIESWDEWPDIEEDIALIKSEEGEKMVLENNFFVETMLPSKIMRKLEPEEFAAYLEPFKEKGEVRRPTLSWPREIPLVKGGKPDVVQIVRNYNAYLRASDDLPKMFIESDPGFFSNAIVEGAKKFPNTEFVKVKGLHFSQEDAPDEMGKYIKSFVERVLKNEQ
T5 sequence (P32121 whole entry partner): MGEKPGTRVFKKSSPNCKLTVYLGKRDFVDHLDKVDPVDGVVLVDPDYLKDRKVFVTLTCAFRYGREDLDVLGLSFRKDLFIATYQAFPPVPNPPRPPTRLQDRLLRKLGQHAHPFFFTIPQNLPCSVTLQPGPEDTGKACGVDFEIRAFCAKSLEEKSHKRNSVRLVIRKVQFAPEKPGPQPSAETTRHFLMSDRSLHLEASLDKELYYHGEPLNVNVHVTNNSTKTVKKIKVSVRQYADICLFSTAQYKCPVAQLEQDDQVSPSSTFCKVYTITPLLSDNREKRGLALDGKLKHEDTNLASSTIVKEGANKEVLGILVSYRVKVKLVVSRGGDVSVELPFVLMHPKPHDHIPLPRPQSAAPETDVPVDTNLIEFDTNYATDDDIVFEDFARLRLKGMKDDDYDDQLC
Put plainly: BRET Mu-RLuc/β-arrestin 2-RGFP interaction, SH-SY5Y cells. The data set is classed as cell-based.

Data set [6] has as its system rats. Put plainly: Rota-rod test after intrathecal infusion. Particulars: same range of doses (0.1–1 nmol), data not shown. Type of data set: in vivo, rat. The method, then: For all the experiments described below, male Sprague-Dawley rats (Harlan, Varese, Italy), weighing approximately 280-300g at the beginning of the experimental procedure, were used. Animals were housed in CeSAL (Centro Stabulazione Animali da Laboratorio, University of Florence) and used at least one week after their arrival. One rat was housed per cage (size 26x41 cm); animals were fed with standard laboratory diet and tap water ad libitum, and kept at 23±1°C with a 12 h light/dark cycle, light at 7 a.m. […] All animals were monitored daily using a scoring system (based on: Appearance, Food and Water Intake, Clinical Signs, Natural Behaviour and Provoked Behaviour. Maximum score is 20 and animals reaching 10 are euthanized. In the experiments reported here no animals reached this score and none died before the end of the experiment) and at the end of the experiment were euthanized by CO2 overdose. […]
Rota-rod apparatus (Ugo Basile, Varese, Italy) consisted of a base platform and a rotating rod with a diameter of 6 cm and a non-slippery surface. […] The integrity of motor coordination was assessed on the basis of the number of falls from the rod in 60s measured 15, 30, 45, 60, 90, 120 and 180 min after treatments.

Data set [7] concerns the target T3, Kappa receptor (CHOhKappa). The data set is described as follows: Displacement binding of [3H]-DPN, CHOhKappa membranes. As to conditions: SEM. The procedure: (§1) In the radioligand displacement binding assays, homogenization/wash buffer consisting of 50 mM Tris-HCl pH to 7.4 with KOH, for CHOhMu, CHOhDelta and CHOhKappa or additional 5 mM MgSO4 for CHOhNOP was used. Homogenisation buffer (50 mM Tris and 0.2 mM EGTA pH 7.4 with NaOH) was used in GTPγ[^35S] assays. Membranes were centrifuged at 20374 g for 10 min at 4°C. This process was repeated at least three times. The resulting pellet was resuspended in an appropriate amount of the necessary buffer and the protein concentration was determined by Lowry assay.
(§2) Samples were incubated for 1 hr at room temperature and reactions were terminated by vacuum filtration, onto PEI-soaked Whatman GF/B filters, using a Brandel harvester.

The target of data set [8] is T2, NOP receptor (CHOhNOP). The data set is described as follows: Displacement binding of [3H]-UFP-101, CHOhNOP membranes. The procedure:
as §1, §2

In data set [9] the target is T6, human NOP receptor (NOP-RLuc/β-arrestin 2-RGFP) (Homo sapiens, UniProt P41146).
T6 construct: expressed in transfected cells; host or cells: HEK-293 (retroviral expression; whole cells)
T6 sequence (P41146+P27652 fused): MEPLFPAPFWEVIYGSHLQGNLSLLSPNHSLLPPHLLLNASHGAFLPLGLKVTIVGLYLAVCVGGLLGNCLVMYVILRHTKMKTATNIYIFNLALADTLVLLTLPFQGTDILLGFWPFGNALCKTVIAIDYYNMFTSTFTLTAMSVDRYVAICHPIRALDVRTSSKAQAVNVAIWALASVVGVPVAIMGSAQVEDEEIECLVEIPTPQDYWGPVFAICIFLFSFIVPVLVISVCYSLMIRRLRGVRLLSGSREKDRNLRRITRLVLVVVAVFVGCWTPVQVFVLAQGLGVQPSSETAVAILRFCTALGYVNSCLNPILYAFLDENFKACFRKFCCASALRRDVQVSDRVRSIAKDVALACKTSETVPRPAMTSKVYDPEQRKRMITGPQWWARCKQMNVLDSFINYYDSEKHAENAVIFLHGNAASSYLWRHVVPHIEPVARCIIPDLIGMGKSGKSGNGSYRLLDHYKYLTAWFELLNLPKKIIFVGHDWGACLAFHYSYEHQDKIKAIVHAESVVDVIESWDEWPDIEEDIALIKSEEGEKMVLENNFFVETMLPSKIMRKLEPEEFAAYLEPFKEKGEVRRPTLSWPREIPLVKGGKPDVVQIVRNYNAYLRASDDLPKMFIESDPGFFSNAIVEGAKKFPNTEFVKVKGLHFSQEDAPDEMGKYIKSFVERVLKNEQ
T6 sequence (P32121 whole entry partner): as the sequence (P32121 whole entry partner) above
Put plainly: BRET NOP-RLuc/β-arrestin 2-RGFP interaction, HEK-293 cells. The data set is classed as cell-based. On the technique in general: In BRET a luciferase serves as donor, and the signal depends on an acceptor being close.

The target in data set [10] is T7, human NOP receptor (Homo sapiens, UniProt P41146).
T7 construct: expressed in transfected cells; host or cells: CHO
T7 sequence (P41146 whole entry): as the sequence (P41146 whole entry) above
Put plainly: Calcium mobilisation, CHO cells with NOP and Gαqi5. Type of data set: cell-based. Background: A change in cytosolic calcium serves as a functional read-out for many receptors and channels.

The target in data set [11] is T8, human Mu receptor (Homo sapiens, UniProt P35372).
T8 construct: expressed in transfected cells; host or cells: CHO
T8 sequence (P35372 whole entry): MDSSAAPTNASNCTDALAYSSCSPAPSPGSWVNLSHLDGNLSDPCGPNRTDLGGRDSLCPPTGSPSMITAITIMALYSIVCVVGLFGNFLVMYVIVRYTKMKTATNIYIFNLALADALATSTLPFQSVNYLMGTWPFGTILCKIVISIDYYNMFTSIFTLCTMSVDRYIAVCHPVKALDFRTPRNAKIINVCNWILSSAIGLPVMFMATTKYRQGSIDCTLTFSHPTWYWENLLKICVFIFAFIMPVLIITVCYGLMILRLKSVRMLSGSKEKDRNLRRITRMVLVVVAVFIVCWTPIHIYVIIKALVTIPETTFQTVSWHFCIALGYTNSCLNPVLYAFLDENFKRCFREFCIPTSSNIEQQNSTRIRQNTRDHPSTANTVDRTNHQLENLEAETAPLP
The data set is described as follows: Calcium mobilisation, CHO cells with Mu and Gαqi5. Type of data set: cell-based.

For data set [12], the target named is human NOP receptor (NOP-RLuc/Gβ1-RGFP) (Homo sapiens, UniProt P41146). Put plainly: biochemical. The data set is classed as biochemical.
Chain of human NOP receptor (NOP-RLuc/Gβ1-RGFP) (P41146 whole entry, looked up): as the sequence (P41146 whole entry) above
The target in data set [13] is T1, Mu receptor (CHOhMu). The data set is described as follows: Displacement binding of [3H]-DPN, CHOhMu membranes. Particulars: SEM. The procedure:
as §1, §2

Data set [14] has as its target T9, Delta receptor (CHOhDelta) (Homo sapiens, UniProt P41143).
T9 construct: expressed in transfected cells; host or cells: CHO (Chinese Hamster Ovary)
Put plainly: Displacement binding of [3H]-DPN, CHOhDelta membranes. As to conditions: SEM. The procedure:
as §1, §2

Data set [15] deals with T9, Delta receptor (CHOhDelta). Put plainly: GTPγ[35S] binding, CHOhDelta membranes. The data set is classed as biochemical.

T9 sequence (P41143 whole entry): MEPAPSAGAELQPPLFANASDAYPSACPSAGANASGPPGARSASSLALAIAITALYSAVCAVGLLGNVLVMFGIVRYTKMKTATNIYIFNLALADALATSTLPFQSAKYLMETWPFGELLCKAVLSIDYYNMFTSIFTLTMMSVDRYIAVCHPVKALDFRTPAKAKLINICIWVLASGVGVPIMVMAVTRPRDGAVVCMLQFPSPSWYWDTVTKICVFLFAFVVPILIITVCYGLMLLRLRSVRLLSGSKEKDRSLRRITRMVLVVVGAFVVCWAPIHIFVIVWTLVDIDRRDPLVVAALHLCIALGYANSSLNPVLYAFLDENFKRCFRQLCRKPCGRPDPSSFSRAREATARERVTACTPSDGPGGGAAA
T1 sequence (P35372 whole entry): as the sequence (P35372 whole entry) above
T4 sequence (P35372 whole entry, looked up): as the sequence (P35372 whole entry) above

With `CC(C)C[C@H](NC(=O)[C@H](CCCCN)NC(=O)[C@H](CCCNC(=N)N)NC(=O)[C@H](C)NC(=O)[C@H](CO)NC(=O)[C@H](CCCCN)NC(=O)[C@H](CCCNC(=N)N)NC(=O)[C@H](C)NC(=O)CNC(=O)[C@@H](NC(=O)[C@H](Cc1ccccc1)NC(=O)CNC(=O)CNC(=O)[C@@H](N)Cc1ccccc1)[C@@H](C)O)C(=O)N[C@@H](C)C(=O)N[C@@H](CC(N)=O)C(=O)N[C@@H](CCC(N)=O)C(=O)N[C@@H](CSC1CC(=O)N(CCCC(=O)NCCCC[C@H](NC(=O)[C@H](CO)NC(=O)[C@@H]2CCCN2C(=O)[C@H](Cc2ccc(O)cc2)NC(=O)CNC(=O)[C@H](Cc2ccccc2)NC(=O)[C@@H](C)NC(=O)[C@@H](N)Cc2ccc(O)cc2)C(N)=O)C1=O)C(N)=O` (stereo partly drawn) [DeNo], the concentration giving a half-maximal response (EC50) in data set [1] is 17 nM; in data set [2], 0.316 nM; in data set [3], 1200 nM; in data set [4], 9.77 nM; in data set [5] it was 437 nM; in data set [9], 6.46 nM. Moreover, the 50% effective concentration (EC50) is 0.204 nM in [10], 67.6 nM in data set [11], 0.955 nM in data set [12] and 166 nM in data set [15]. Moreover, the “animal performance in the rotarod test” value in [6] is “impaired animal performance in the rotarod test”. Also, the inhibition constant Ki was 45.7 nM in data set [7], 0.0603 nM in data set [8] (SEM), 0.282 nM in [13] and 7.59 nM in data set [14]. The “NOP selectivity over Mu in binding” value in data set [8] (from pKi values) was ~ 5 fold. Moreover, the Emax amounted to 244 ± 6% in data set [10] (calcium mobilisation, % over basal fluorescence, CHO cells with human NOP and Gαqi5, at least 3 experiments in duplicate, SEM); 209 ± 15% in data set [11] (calcium mobilisation, % over basal fluorescence, CHO cells with human Mu and Gαqi5, at least 3 experiments in duplicate, SEM).
